Measurements as given in ChEMBL document CHEMBL1201862, “PubChem BioAssay data set” (2004).
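Dose response: 5 concentrations. Exposure: 48 h. Format: 96-well plates. Endpoint: linear interpolation; highest concentration if not reached. Abbreviation: GI50, concentration required for 50% inhibition of growth.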 The source made the active and inactive calls. Rule as the data show it: active = GI50 up to about 1.1 µM and inactive = higher.

Assays:
MDA-MB-231 = assay: NCI-60 cell line screen, 48 h
MDA-N = assay: NCI-60 cell line screen, 48 h

Compound: CC(C)(C)n1nc(C2CC2)cc1NC(=O)Nc1ccc(Cl)cc1
- GI50 (MDA-MB-231): > 100 µM (inactive)

Compound: COc1cc(-c2oc3c(OC)c(O)cc(O)c3c(=O)c2OC)ccc1O
- GI50 (MDA-N): 10.6 µM (inactive)
- GI50 (MDA-MB-231): 7.76 µM (inactive)

Compound: CC(=O)N1CCN(C23OC4(N5CCN(C(C)=O)CC5)C5C6CC(C7C6C4C72)C53)CC1 (configuration not stated)
- GI50 (MDA-N): > 100 µM (inactive)
- GI50 (MDA-MB-231): > 100 µM (inactive)

Compound: CC1(C=O)CCC23COC4(CCC5C6(C)CCC(OC7OCC(OC8OC(CO)C(O)C(OC9OC(CO)C(O)C(O)C9O)C8OC8OCC(O)C(O)C8O)C(O)C7OC7OC(CO)C(O)C(O)C7O)C(C)(C)C6CCC5(C)C4(C)CC2O)C3C1 (configuration not stated)
- GI50 (MDA-N): 0.557 µM (active)
- GI50 (MDA-MB-231): 0.32 µM (active)

Compound: c1ccc2c(Nc3ncco3)cccc2c1
- GI50 (MDA-N): > 10 µM (inactive)
- GI50 (MDA-MB-231): > 10 µM (inactive)

Compound: CCCCCCCCCCCCCCCCOCC(CCl)OP(=O)(O)OP(=O)(O)OCC1OC(n2ccc(N)nc2=O)C(O)C1O (configuration not stated)
- GI50 (MDA-N): > 100 µM (inactive)
- GI50 (MDA-MB-231): > 100 µM (inactive)

Compound: C=CCNC(=O)NC(=O)CSC1=NC(=O)C2(NN1)c1ccccc1-c1ccccc12
- GI50 (MDA-N): > 10 µM (inactive)
- GI50 (MDA-MB-231): > 10 µM (inactive)

Compound: CCOC(=O)Nc1ccc(S(=O)(=O)Nc2ccc(Br)cc2)cc1
- GI50 (MDA-N): 37 µM (inactive)
- GI50 (MDA-MB-231): 29.7 µM (inactive)

Compound: Cc1c(-c2ccccc2)c(C#N)c2nnn(-c3ccc(Cl)cc3)c(=O)n12
- GI50 (MDA-N): 24.2 µM (inactive)
- GI50 (MDA-MB-231): 36.3 µM (inactive)

Compound: CN(CCCCN(C)CCc1ccc(Cl)c(Cl)c1)CCCCN1CCCC1
- GI50 (MDA-N): 1.26 µM (inactive)
- GI50 (MDA-MB-231): 0.75 µM (active)

Compound: O=C(O)c1cc2cc(c1)/N=C/c1ccccc1OCc1cccc(n1)COc1ccccc1/C=N/2
- GI50 (MDA-N): 4.53 µM (inactive)
- GI50 (MDA-MB-231): > 25 µM (inactive)

Compound: Cn1cc(S(=O)(=O)NC(=O)Nc2ccc(Cl)cc2)c(=O)c2ccc(Cl)cc21
- GI50 (MDA-N): > 100 µM (inactive)
- GI50 (MDA-MB-231): > 100 µM (inactive)

Compound: Cc1c(S(=O)(=O)N/C(=N\O)Nc2ccc(Cl)c(Cl)c2)sc2ccc(Cl)cc12
- GI50 (MDA-N): 17.5 µM (inactive)
- GI50 (MDA-MB-231): 23.8 µM (inactive)

Compound: Cc1[nH]c2ncn3[nH]c(=S)nc3c2c1Cc1ccccc1
- GI50 (MDA-MB-231): > 100 µM (inactive)

Compound: Cc1ccc2nc(C(=O)O)c(=O)[nH]c2c1
- GI50 (MDA-N): > 100 µM (inactive)
- GI50 (MDA-MB-231): > 100 µM (inactive)

Compound: NC(=O)C(=CNC(=S)Nc1ccc(S(=O)(=O)Nc2ccccn2)cc1)C(N)=O
- GI50 (MDA-N): > 93.8 µM (inactive)
- GI50 (MDA-MB-231): > 100 µM (inactive)

Compound: CC(C)(C)[Si](C)(C)OCC1CCC(n2cnc3c(NC(=O)c4ccccc4)ncnc32)O1 (configuration not stated)
- GI50 (MDA-N): 17.2 µM (inactive)
- GI50 (MDA-MB-231): 20.7 µM (inactive)

Compound: Brc1ccc(-c2cn3ccncc3n2)cc1
- GI50 (MDA-N): > 100 µM (inactive)
- GI50 (MDA-MB-231): > 100 µM (inactive)

Compound: Cc1ccc(/C=C2\NC(=S)NC2=O)cc1
- GI50 (MDA-N): > 100 µM (inactive)
- GI50 (MDA-MB-231): > 100 µM (inactive)

Compound: O=C1NC(N2CCCCC2)=N/C1=C\c1ccc(Cl)cc1
- GI50 (MDA-N): 71 µM (inactive)
- GI50 (MDA-MB-231): 34.1 µM (inactive)

Compound: O=[N+]([O-])c1cccc2nc3ccccc3c(NCCCN3CCCCC3)c12
- GI50 (MDA-N): 0.0102 µM (active)
- GI50 (MDA-MB-231): 0.016 µM (active)

Compound: COC(=O)C1=C(C)NC(=O)N2[C@@H](CCOCc3ccccc3)CC[C@@H]12
- GI50 (MDA-N): > 50 µM (inactive)
- GI50 (MDA-MB-231): > 50 µM (inactive)

Compound: CC(=O)O[C@H]1CC[C@@]2(C)C(=C[C@H](c3ccc(O)cc3)[C@H]3[C@@H]4CC[C@H](OC(C)=O)[C@@]4(C)CC[C@@H]32)C1
- GI50 (MDA-MB-231): 17.9 µM (inactive)

Compound: CCN(CC)CCN(C)c1ccc(CO)c2c1c(=O)c1ccccc1[s+]2[O-] (configuration not stated)
- GI50 (MDA-MB-231): 2.84 µM (inactive)

Compound: CN(C)C1(C(=O)O)CC1
- GI50 (MDA-N): > 100 µM (inactive)

Compound: CCC/C(C)=N/NC(=S)SC.CCC/C(C)=N/NC(=S)SC.[Zn+2]
- GI50 (MDA-MB-231): 1.7 µM (inactive)

Compound: COc1ccc(COC(=O)NNC(=O)C2CSC(c3ccccc3)N2C(C)=O)cc1 (configuration not stated)
- GI50 (MDA-N): > 100 µM (inactive)

Compound: CCN(CC)C1CCC(C2c3cc4c(cc3OC(N3CCOCC3)C2C)OCO4)CC1 (configuration not stated)
- GI50 (MDA-N): 4.28 µM (inactive)

Compound: CC(C)CC1c2[nH]c3ccccc3c2C[C@H]2C(=O)NC(Cc3c[nH]c4ccccc34)C(=O)N12 (some centres not stated)
- GI50 (MDA-MB-231): 20.3 µM (inactive)

Compound: COc1cc2c3c(n(C)c(=O)c2cc1OC)-c1cc2c(cc1/C3=C\CCCI)OCO2
- GI50 (MDA-N): > 70.8 µM (inactive)

Compound: COC1=C(OC)C(=O)C(Sc2ccc3ccccc3c2)=CC1=O
- GI50 (MDA-MB-231): 11.4 µM (inactive)

Compound: Cc1c2ccccc2c(C)n2c1nc1ccccc12
- GI50 (MDA-N): 10.6 µM (inactive)
